Counter-ions that a name gives are not always drawn.
Test system: A2780 cells
Experiment: In vitro cell proliferation assay (WST-1 assay)
Type: cell-based
Conditions: Homo sapiens, total incubation time 72 h, WST-1 viable cell readout
Description: A2780 cells were seeded in 96-well plates at 3×10^3 cells/well in 100 μL of culture medium, 8 wells were left empty for media only controls.
After 24 h the compound titrations were performed, in a separate dilution plate, by serially diluting the compounds of general formula (I) in culture medium. A 100 μL of each dilution was added to the plated cells, this was done in triplicate, and controls (e.g. DMSO and blanks) were included. The plates were incubated for 24 h at 37° C. in a CO2 incubator. The compound titrations were repeated in a separate dilution plate after 24 h. The media plus compound from the assay plates were then aspirated. A 100 μL of media was then added to all wells, followed by 100 μL of each compound dilution. The plates were incubated for a further 48 h at 37° C. in a CO2 incubator (total incubation time 72 h). The number of viable cells was then assessed using Cell Proliferation Reagent WST-1. 10 μL of WST-1 reagent added to each well and incubated for one to four hours at 37° C. in CO2 incubator. The absorbance was measured (450 nm/690 nm).
The activity of compounds of general formula (I) in reducing the number of viable cells was calculated as: % activity=[(S^C−B)/(S^O−B)]×100
S^C denotes signal measured in the presence of test compound, S^O denotes signal detected in the absence of compound, and B denotes background signal, measured in blank wells containing medium only. Analyse data using GraphPad Prism.

Point of comparison: `O=C(NCCCCCCS(=O)(=O)Nc1ccccc1)NCc1cccnc1` [Compound 1076, N-Phenyl-6-(3-(pyridin-3-ylmethyl)ureido)hexane-1-sulfonamide], IC50 5.4 nM. Against it:
- O=C(NCCCCCCS(=O)(=O)NOCC1CCCCC1)Nc1ccncc1 [Compound 1001, N-(cyclohexylmethoxy)-6-(3-pyridin-4-ylureido)hexane-1-sulfonamide] — 2.5-fold higher, 13.5 nM
- O=C(NCCCCCCC(=O)N(OCCN1CCOCC1)C1CCCCC1)Nc1ccncc1 [Compound 1002, N-Cyclohexyl-N-(2-morpholinoethoxy)-7-(3-pyridin-4-ylureido)heptanamide] — 3.6-fold lower, 1.49 nM
- O=S(=O)(CCCCCCNC(=S)Nc1ccncc1)N(OCCN1CCOCC1)C1CCCCC1 [Compound 1005, N-Cyclohexyl-N-(2-morpholinethoxy)-6-(3-pyridin-4-ylthioureido)hexane-1-sulfonamide oxalate] — 16-fold lower, 0.34 nM
- O=C(NCCCCCCS(=O)(=O)N(OCCN1CCOCC1)C1CCCCC1)Nc1ccncc1 [Compound 1008, N-Cyclohexyl-N-(2-morpholinethoxy)-6-(3-pyridin-4-ylureido)hexane-1-sulfonamide oxalate] — 23-fold lower, 0.23 nM
- O=C(NCCCCCCC(=O)N(OCCN1CCOCC1)C1CCCCC1)NCc1cccnc1 [Compound 1009, N-cyclohexyl-N-(2-morpholinoethoxy)-7-(3-(pyridin-3-ylmethyl)ureido)heptanamide] — 16-fold lower, 0.33 nM
- COCCOCCOCCN(OCC1CCCCC1)S(=O)(=O)CCCCCCNC(=O)NCc1cccnc1 [Compound 1013, N-(cyclohexylmethoxy)-N-(2-(2-(2-methoxyethoxy)ethoxy)ethyl)-6-(3-(pyridin-3-ylmethyl)ureido)hexane-1-sulfonamide] — 49-fold lower, 0.11 nM
- O=C(CCCCCCNC(=S)NCc1cccnc1)N(OCCN1CCOCC1)C1CCCCC1 [Compound 1015, N-cyclohexyl-N-(2-morpholinoethoxy)-7-(3-(pyridin-3-ylmethyl)thioureido)heptanamide] — 6.1-fold lower, 0.89 nM
- O=C(NCCCCCCS(=O)(=O)N1CCCCO1)NCc1cccnc1 [Compound 1018, hydrochloride] — 2.6-fold higher, 14 nM
- O=C(NCCCCCCC(=O)N(OCCN1CCOCC1)C1CCCCC1)NCCc1cccnc1 [Compound 1020] — 4-fold lower, 1.34 nM
- CC(C)N(OCCN1CCOCC1)S(=O)(=O)CCCCCCNC(=O)NCc1cccnc1 [Compound 1022, N-Isopropyl-N-(2-morpholinoethoxy)-6-(3-(pyridin-3-ylmethyl)ureido)hexane-1-sulfonamide] — 2.4-fold lower, 2.23 nM
- O=C(NCCCCCCS(=O)(=O)N(CCCN1CCOCC1)C1CCCCC1)Nc1ccncc1 [Compound 1026, N-Cyclohexyl-N-(3-morpholinopropyl)-6-(3-pyridin-4-ylureido)hexane-1-sulfonamide] — 23-fold lower, 0.23 nM
- O=C(NCCCCCCS(=O)(=O)N(CCN1CCOCC1)OCC1CCCCC1)NCc1cccnc1 [Compound 1031, N-(cyclohexylmethoxy)-N-(2-morpholinoethyl)-6-(3-(pyridin-3-ylmethyl)ureido)hexane-1-sulfonamide] — 42-fold lower, 0.13 nM
- O=C(NCCCCCCS(=O)(=O)N(CCN1CCOCC1)OCC1CCCCC1)NCCc1cccnc1 [Compound 1032, N-(cyclohexylmethoxy)-N-(2-morpholinoethyl)-6-(3-(2-(pyridin-3-yl)ethyl)ureido)hexane-1-sulfonamide] — 2.6-fold higher, 14.1 nM
- O=C(NCCCCCS(=O)(=O)N(OCCN1CCOCC1)C1CCCCC1)NCc1cccnc1 [Compound 1042] — within 1.5-fold, 6.64 nM
- O=C(NCCCCCCCS(=O)(=O)N(OCCN1CCOCC1)C1CCCCC1)NCc1cccnc1 [Compound 1043] — 15-fold lower, 0.37 nM
- CC(C)N(CCCN1CCOCC1)S(=O)(=O)CCCCCCNC(=O)Nc1ccncc1 [Compound 1049, N-Isopropyl-N-(3-morpholinopropyl)-6-(3-pyridin-4-ylureido)hexane-1-sulfonamide] — 9-fold lower, 0.6 nM
- O=C(NCCCCCCS(=O)(=O)N(OCCN1CCOCC1)C1CCCC1)NCc1cccnc1 [Compound 1056, N-Cyclopentyl-N-(2-morpholinoethoxy)-6-(3-(pyridin-3-ylmethyl)ureido)hexane-1-sulfonamide] — 9.3-fold lower, 0.58 nM
- O=C(NCCCCCCS(=O)(=O)N(OCCN1CCOCC1)C1CCCCCC1)NCc1cccnc1 [Compound 1058, N-Cycloheptyl-N-(2-morpholinoethoxy)-6-(3-(pyridin-3-ylmethyl)ureido)hexane-1-sulfonamide] — 8.6-fold lower, 0.63 nM
- O=S(=O)(CCCCCCNC(=S)Nc1ccncc1)N(CCCN1CCOCC1)C1CCCC1 [Compound 1064, N-Cyclopentyl-N-(3-morpholinopropyl)-6-(3-pyridin-4-ylthioureido)hexane-1-sulfonamide] — 9.8-fold lower, 0.55 nM
- O=C(NCCCCCCC(=O)N(OCCN1CCOCC1)C1CCCCC1)Nc1cccnc1 [Compound 1065, N-Cyclohexyl-N-(2-morpholinoethoxy)-7-(3-pyridin-3-ylureido)heptanamide] — 25-fold lower, 0.22 nM
- O=C(NCCCCCCS(=O)(=O)N(CCCN1CCOCC1)C1CCCC1)Nc1ccncc1 [Compound 1066, N-Cyclopentyl-N-(3-morpholinopropyl)-6-(3-pyridin-4-ylureido)hexane-1-sulfonamide] — 20-fold lower, 0.27 nM
- CCOP(=O)(CCCCCCNC(=O)NCc1cccnc1)NC1CCCCC1 (centres unmarked) [Compound 1067, Ethyl N-cyclohexyl-P-(6-(3-pyridin-3-ylmethyl)ureido)phosphonamidate] — 6.8-fold lower, 0.79 nM
- O=C(NCCCCCS(=O)(=O)N(CCCN1CCOCC1)C1CCCC1)NCc1cccnc1 [Compound 1069, N-cyclopentyl-N-(3-morpholinopropyl)-5-(3-(pyridin-3-ylmethyl)ureido)pentane-1-sulfonamide] — 1.8-fold lower, 3.04 nM
- CCOP(=O)(CCCCCCNC(=O)NCc1cccnc1)N1CCCCO1 (centres unmarked) [Compound 1072] — 2.3-fold lower, 2.4 nM
- O=C(NCCCCCCS(=O)(=O)N(OCCN1CCOCC1)C1CCCCC1)NCc1cccnc1 [Compound 1075, N-Cyclohexyl-N-(2-morpholinoethoxy)-6-(3-(pyridin-3-ylmethyl)ureido)hexane-1-sulfonamide oxalate] — 3.3-fold lower, 1.64 nM
- O=C(NCCCCCCS(=O)(=O)N(CCN1CCOCC1)OCc1ccccc1)NCc1cccnc1 [Compound 1078, N-(Benzyloxy)-N-(2-morpholinoethyl)-6-(3-(pyridin-3-ylmethyl)ureido)hexane-1-sulfonamide] — 12-fold lower, 0.46 nM
- O=S(=O)(CCCCCCNC(=S)Nc1ccncc1)N(CCCN1CCOCC1)C1CCCCC1 [Compound 1081, N-Cyclohexyl-N-(3-morpholinopropyl)-6-(3-(pyridin-4-ylthioureido)hexane-1-sulfonamide oxalate] — 6.5-fold lower, 0.83 nM
- O=S(=O)(CCCCCCNC(=S)Nc1ccncc1)N(OCCN1CCOCC1)C1CCCC1 [Compound 1082] — 100-fold lower, 0.053 nM
- O=S(=O)(CCCCCNC(=S)Nc1ccncc1)N(OCCN1CCOCC1)C1CCCC1 [Compound 1083, N-Cyclopentyl-N-(2-morpholinoethoxy)-5-(3-(pyridin-4-ylthioureido)pentane-1-sulfonamide oxalate] — within 1.5-fold, 3.92 nM
- O=S(=O)(CCCCCCNC(=S)Nc1ccncc1)N(CCF)OCC1CCCCC1 [Compound 1087, N-(cyclohexylmethoxy)-N-(2-fluoroethyl)-6-(3-pyridin-4-ylthioureido)hexane-1-sulfonamide] — 4-fold lower, 1.36 nM
- O=C(NCCCCCCS(=O)(=O)N(CCF)OCC1CCCCC1)Nc1ccncc1 [Compound 1088, N-(cyclohexylmethoxy)-N-(2-fluoroethyl)-6-(3-pyridin-4-ylureido)hexane-1-sulfonamide] — 42-fold lower, 0.13 nM
- O=C(NCCCCCCS(=O)(=O)N(CCF)OCC1CCCCC1)NCc1cccnc1 [Compound 1089, N-(cyclohexylmethoxy)-N-(2-fluoroethyl)-6-(3-(pyridin-3-ylmethyl)ureido)hexane-1-sulfonamide] — 2.6-fold lower, 2.04 nM
- O=C(NCCCCCCS(=O)(=O)N(OCCN1CCOCC1)C1CCCC1)Nc1ccncc1 [Compound 1090] — 36-fold lower, 0.15 nM
- O=C(/C=C/c1cccnc1)NCCCCC1CCN(C(=O)c2ccccc2)CC1 [FK866, reference compound] — 54-fold lower, 0.1 nM
